According to US20060229358A1, “Pharmaceutical composition containing flavonoids” (Taipei Medical University, priority 2005, published 2006):

Assays:
[1] = test system: PDE4; experiment: Inhibition of cyclic nucleotide PDE activity (Assay I), PDE4, incl. Lineweaver-Burk analysis; format: biochemical, guinea pig; conditions: from the IC50s of Table 2
Description: Under a protocol approved by the Animal Care and Use Committee of Taipei Medical University, five male guinea pigs (Hartley), weighing 500-600 g, were sacrificed. The lungs (15 g) or hearts (4 g) taken therefrom were chopped into small pieces and homogenized with a glass/teflon homogenizer (Glas-Col, Terre Haute, Ind., USA) in 10 volumes of cold medium (pH 6.5) containing 20 mM Bis-Tris, 2 mM benzamidine, 2 mM EDTA, 50 mM sodium chloride, 0.1 mM phenylmethanesulfonyl fluoride (PMSF), and 1 mM dithiothreitol. At 4° C., the homogenate was centrifuged at 170 g for 15 min, and the supernatant thereof was then re-centrifuged at 40,000 g for 30 min. […] The column was washed with two bed volumes of homogenate buffer to remove unbound material, where the resin beads therein will bind with proteins, such as PDE proteins. Proteins bound to the Q-sepharose beads were eluted with various concentrations (0.23, 0.34, 0.44, 0.69, and 1.00 M) of NaCl dissolved in homogenate buffer (for each concentration, 40-50 mL elution buffer were applied) at a flow rate of 30 ml/h. Fractions (3 ml each) were collected, and ethylene glycol (EG) was added thereto until a final concentration of 30% (v/v). And then the samples were frozen at −70° C.
The activities of PDE1-5 in the homogenate were measured with a two-step procedure according to the method of Thompson and Appleman, using cAMP with [^3H]-cAMP or cGMP with [^3 H]-cGMP as substrates. The PDE enzyme prepared (25 μl) with 10 μl inhibitor or the solvents therefor was incubated for 30 min at 37° C. in a total assay buffer, where the final volume of the assay is amounted to 100 μl. In accordance with the features of the PDE isozymes, the assay buffer contains 50 mM Tris/HCl (pH 7.4), 3 mM MgCl2, 1 mM dithiothreitol, and 0.05% BSA, and optionally contains 1 uM cAMP with 0.2 μCi [^3H]-cAMP as a substrate alone or in the presence of 0.1 unit calmodulin with 10 μM CaCl2, or 5 μM cGMP, and 1 μM cGMP with 0.2 μCi [^3H]-cGMP as another substrate alone or in the presence of 0.1 unit calmodulin with 10 μM CaCl2.
The PDE enzyme and the inhibitors (or their solvent) therefor were mixed and incubated on ice for 30 min previously, and then mixed with the assay buffer. The assay was initiated by transferring the mixture to a water bath at 37° C. Following the other 30 min incubation, the reaction was stopped by transferring the reaction vessel to a bath of boiling water for 3 min. After cooling on ice, 20 μl of the 1 mg/ml of Crotalus atrox venom was added to the reaction mixture, and the mixture was incubated at 37° C. for 10 min. The uncatalyzed substrates, such as cAMP, [^3H]-cAMP, cGMP, or [^3H]-cGMP were removed by the addition of 500 μl of a 1-in-1 Tris-HCl (40 mM) buffer suspension of Dowex resin (1×8-200) with incubation on ice for 30 min, since the bindings of the cyclic nucleotides and the resin. Each tube was then centrifuged for 2 min at 6000 rpm, and 100 μl of the supernatant was removed and counted by a β-counter for calculating the enzyme (PDEs) activity.
The dissociation constant of inhibitor binding (Ki) value was determined from the equation of apparent Km as a function of the inhibitor concentration (insert in A and B, respectively). The slope of the equation is equal to the value of […] (where KM is Michaelis constant). The amounts of the total proteins are calculated based on the analytical method reported by Bradford. In FIGS. 1A and 1B, all enzyme activities are shown as nmole of substrate per mg of proteins per minute (nmole/mg/min) hydrolyzed.
The IC50 values of flavonoids and various reference drugs were calculated using non-linear regression analysis by the software SigmaPlot 7.0 (Sigma Chemical, St. Louis Mo., USA).

[2] = test system: inflammatory cells in BALF of OVA-sensitized BALB/c mice; experiment: Inflammatory cells in BALF of OVA-sensitized mice (Assay III); format: in vivo, mouse; conditions: FIG. 3B
Description: (§1) Sensitization, airway challenge, and allergen provocation was carried out as described by Kanehiro et al with some modifications. The female BALB/c mice from 8 to 12 week of age were obtained from National Laboratory Animal Center (Taiwan), and maintained on diets free of ovalbumin (OVA). Mice were sensitized by an intraperitoneal (i.p.) injection of 20 μg of OVA emulsified in 2.25 mg aluminum hydroxide gel in a total volume of 100 μl on days 0 and 14. For comparison, some mice were not sensitized, but received sham injection. All mice were challenged via the airway by OVA (1% in saline) for 30 min on days 28, 29, and 30 by ultrasonic nebulization. […] AHR was assessed on day 73 (48 h after 1% OVA provocation) for each group. […] The AHR was measured in unrestrained animals by barometric plethysmography using a whole-body plethysmograph (WBP) (Buxco, Troy, N.Y., USA). Mice were placed into the main chamber of the WBP and nebulized first with phosphate buffer solution (PBS), then with increasing doses (6.25-50 mg/ml) of methacholine (MCh) for 3 min for each nebulization, followed by readings of breathing parameters for 3 min after each nebulization with determination of enhanced pause (Penh) values. […] The number of inflammatory cells was counted using a hemacytometer (Hausser Sci., Horsham, Pa., USA). […]

[3] = test system: OVA-sensitized and challenged BALB/c mice, methacholine-induced Penh; experiment: Airway hyperresponsiveness in vivo, Penh by whole-body plethysmography (Assay III); set-up: species or system mouse; conditions: i.p., FIG. 3A
Description: as §1

[4] = test system: cytokines (IL-2, IL-4, IL-5, TNF-α, IFN-γ) in BALF of OVA-sensitized BALB/c mice; experiment: Cytokines in BALF of OVA-sensitized mice (Assay III); format: in vivo, mouse; conditions: FIG. 3C
Description: as §1

| SMILES | selectivity among PDE1-5 [1] | enhancement of eosinophils in BALF ([2]; 3 μmol/kg i.p., compared with control group) | enhancement of total inflammatory cells, macrophages, lymphocytes, neutrophils and eosinophils in BALF ([2]; 10 and 30 μmol/kg i.p.) | Penh values compared with non-sensitized mice ([3]; 3~30 μmol/kg) | Penh values induced by 50 mg/ml MCh ([3]; 10 and 30 μmol/kg, sensitized mice) | level of IL-5 in BALF ([4]; 3 and 10 μmol/kg i.p.) | enhancement of IL-2, IL-4, IL-5, TNF-α and IFN-γ levels in BALF ([4]; 3~30 μmol/kg, i.p.) |
| --- | --- | --- | --- | --- | --- | --- | --- |
| COc1cc(O)c2c(=O)c(-c3ccc(O)cc3)coc2c1 [Prunetin] | more-selective inhibition on PDE4 |  |  |  |  |  |  |
| COc1ccc(C2CC(=O)c3c(O)cc(O)cc3O2)cc1O (stereo not shown) [Hesperetin] |  | significantly suppressed | significantly suppressed | not significantly different | significantly suppressed | not suppressed | significantly suppressed |
